Measured values: patent publication US6001812A, “Modulating body/cranial hair growth with derivatives of the α-type melanocyte-stimulating hormone” (Societe L'Oreal S.A., priority 1995, dated 1999)
Where a SMILES comes first, the peptide text is derived from it.

Tested on: hair follicles
Experiment: Lengthening and survival of hair follicles maintained in vitro
Type: cell-based
Parameters: Mean lengthening: unit not given here
Protocol: Viable in vitro hair follicles were prepared according to the technique described in French Patent Application No. 95-08465, filed Jul. 12, 1995 and assigned to the assignee hereof.
From a scalp biopsy, a rather fine strip of scalp was isolated using a scalpel. The adipose tissue surrounding the follicles was removed with microforceps while avoiding damage to the hair bulb. The follicles were cut out with a scalpel under a microscope in order to separate them from their epidermal and dermal surroundings.
The follicles were then cultured in the wells of Costar-type 24-well plates, at the rate of one follicle per well. Each well contained 0.5 ml of Williams' medium E, to which had been added penicillin and streptomycin to a final concentration of 50 IU/ml, glutamine to 2 mM, bovine insulin to 0.01 mg/ml and hydrocortisone to 0.04 mg/ml.
The follicles were then measured using a microscope equipped with a micrometric eyepiece.
After 24 hours, the follicles were again measured and those which had lengthened by less than 0.3 divisions of the micrometer, corresponding to 0.16 mm, were discarded.
The five (5) following culturing conditions were tested:
Condition A: Complete Williams' medium E, without peptide.
Condition B: Complete Williams' medium E+10 mM Ac-LPV-NH2.
Condition C: Complete Williams' medium E+1 mM Ac-LPV-NH2.
Condition D: Complete Williams' medium E+0.1 mM Ac-LPV-NH2.

[1] = 0.1 mM peptide in complete Williams' medium E, day 0
[2] = 0.1 mM peptide in complete Williams' medium E, day 1
[3] = 0.1 mM peptide in complete Williams' medium E, day 4
[4] = 1 mM peptide in complete Williams' medium E, day 0
[5] = 1 mM peptide in complete Williams' medium E, day 1
[6] = 1 mM peptide in complete Williams' medium E, day 11
[7] = 10 mM peptide in complete Williams' medium E, day 0
[8] = 10 mM peptide in complete Williams' medium E, day 1
[9] = 10 mM peptide in complete Williams' medium E, day 12
[10] = summary of Example 1, versus medium without peptide

Structure (SMILES): CC(=O)N[C@@H](CCCCN)C(=O)N1CCC[C@H]1C(=O)N[C@H](C(N)=O)C(C)C [Acetyl-Lys-Pro-Val-NH2] (Ac-Lys-Pro-Val-NH2)
- % Survival [1]: 100%
- Mean lengthening [1]: 0.00
- % Survival [2]: 100%
- Mean lengthening [2]: 0.37
- % Survival [3]: 100%
- Mean lengthening [3]: 1.10
- % Survival (0.1 mM peptide in complete Williams' medium E, day 5): 100%
- % Survival (0.1 mM peptide in complete Williams' medium E, day 6): 100%
- % Survival (0.1 mM peptide in complete Williams' medium E, day 7): 83%
- % Survival (0.1 mM peptide in complete Williams' medium E, day 8): 50%
- % Survival (0.1 mM peptide in complete Williams' medium E, day 11): 42%
- % Survival (0.1 mM peptide in complete Williams' medium E, day 12): 17%
- % Survival [4]: 100%
- Mean lengthening [4]: 0.00
- % Survival [5]: 100%
- Mean lengthening [5]: 0.38
- % Survival (1 mM peptide in complete Williams' medium E, day 4): 100%
- % Survival (1 mM peptide in complete Williams' medium E, day 5): 100%
- % Survival (1 mM peptide in complete Williams' medium E, day 6): 100%
- % Survival (1 mM peptide in complete Williams' medium E, day 7): 91%
- % Survival (1 mM peptide in complete Williams' medium E, day 8): 55%
- % Survival [6]: 36%
- Mean lengthening [6]: 1.70
- % Survival [7]: 100%
- Mean lengthening [7]: 0.00
- % Survival [8]: 100%
- Mean lengthening [8]: 0.38
- % Survival (10 mM peptide in complete Williams' medium E, day 4): 100%
- % Survival (10 mM peptide in complete Williams' medium E, day 5): 100%
- % Survival (10 mM peptide in complete Williams' medium E, day 6): 100%
- % Survival (10 mM peptide in complete Williams' medium E, day 7): 100%
- % Survival (10 mM peptide in complete Williams' medium E, day 8): 92%
- % Survival (10 mM peptide in complete Williams' medium E, day 11): 83%
- % Survival [9]: 42%
- Mean lengthening [9]: 2.40
- Effect on lengthening of the cultured hair follicles (in words) [10]: promoted the lengthening
- Effect on survival time of the cultured hair follicles (in words) [10]: increased their survival time
